The results in this text go back to patent publication US11072584B2, “Carbon monoxide releasing norbornenone compounds” (OTAGO INNOVATION LIMITED, priority 2015, dated 2021).

In one data set the test system is MDA-MB-231. The data set can be described thus: crystal violet cell viability assay. It is filed as cell-based. Conditions: for EC50: Homo sapiens.
Data set [1] has as its system MDCK cells. Kind of data set: crystal violet cell adhesion (CVCA) cell toxicity assay. Conditions: Canis lupus familiaris, MDCK.
For data set [2], the system named is isolated rat aortic rings. The data set can be described thus: isolated rat aortic ring vasorelaxation. Conditions: rings pre-contracted with phenylephrine, 37° C. The arrangement: species or system Lewis rats. The method, then:
Transverse ring sections of aorta were isolated from male Lewis rats ([…], n=5-6 per group) under halothane anaesthesia and suspended under 2 g tension in an organ bath containing 10 mL of oxygenated (95% O2/5% CO2) Krebs Henseleit (KH) buffer containing 118 mM NaCl, 4.7 mM KCl, 1.2 mM KH2PO4, 1.2 mM MgSO4.7H2O, 22 mM NaHCO3, 11 mM glucose, 0.03 mM K^+ EDTA, and 2.5 mM CaCl2 as previously described.^43 Indomethacin (10 μM) was present in the buffer to exclude endogenous prostaglandins as potential modulators of vascular tone. Relaxation responses to oCOm-19 or oCOm-21 ([…]) were assessed using individual dosing in tissues pre-contracted with phenylephrine (0.1 μM). All results were subsequently expressed as a percentage of the maximal phenylephrine-induced contraction. Following repeat wash steps with Krebs Henseleit buffer, smooth muscle function and viability was confirmed by repeating the contractile response to phenylephrine. Aortic responses to individual EC50 concentrations of either CO donor in phenylephrine vasoconstricted rings were repeated separately, in the presence of the CO-chelator, myoglobin (5 μM) and the selective, irreversible inhibitor of sGC 1H-(1,2,4)oxadiazolo[4,3-a]quinoxalin-1-one, (ODQ, 10 μM), as previously described.^44

The nature of data set [3]: carboxyhaemoglobin in rats exposed to CO gas (earlier unpublished studies). It is filed as in vivo. To be noted: 20 ppm CO gas.
The next data set has as its system horse heart myoglobin. Kind of data set: carboxymyoglobin spectrophotometric assay (CO binding to myoglobin). The data set is classed as biochemical. To be noted: 25 to 400 μM; 5 to 90 minutes. The method, then:
CO released from oCOm-19 and oCOm-21 was measured using an established carboxymyoglobin spectrophotometric assay,^39 adapted to a 96 well plate format to enable the simultaneous correction at all absorbance wavelengths arising from any potential interference from the donor compounds.^40 Freshly prepared horse heart myoglobin (66 μM) in a PBS solution (pH 7.4) was reduced with 10% w/v sodium dithionite and added to a 96 well plate. […] Absorption spectra (λ 500-600 nm) were run at ten minute intervals using a Spectramax 96-well spectrophotometer (Molecular Devices, Crawley, UK) at 37° C. CO gas saturated PBS (714 μM), was employed as a positive control.

Another data set is described as follows: Solubility in water. The data set is classed as physicochemical. To be noted: for solubility (in words): water or physiological buffers.
Data set [4] can be described thus: oral bioavailability: blood carboxyhaemoglobin after oral gavage. The data set is classed as in vivo, Sprague Dawley rats. The protocol: Male Sprague Dawley rats (300-320 g) were orally dosed with either oCOm-19 (133.33 μmol/kg) or oCOm-21 (33.33 μmol/kg) in ultra-pure water by oral gavage. Animals were observed every 15 minutes for any changes in behaviour or signs of distress. Tail vein blood samples were collected in heparinised capillary tubes immediately prior to and at 1-3 hours post CO-donor administration. Blood gas analysis on each sample was performed using a Radiometer ABL800 Flex analyser.

Data set [5] can be described thus: CO release by HPLC analysis of breakdown of CO donor to its CO depleted form. It is filed as physicochemical. The method, then:
HPLC grade acetonitrile (CH3CN) was purchased from Merck Chemicals. MilliQ grade H2O was obtained from a Millipore purification system. HPLC grade trifluoroacetic acid (TFA) was purchased from Scharlau. HPLC analyses were conducted on an analytical RP-HPLC (Shimadzu LC-20AD equipped with an SPD-20A UV detector [210 and 254 nm]) using a Phenomenex Prodigy column (C-18, 5 μm, 3.00×250 mm) at 0.5 mL/min and heated to 40° C. Unless otherwise stated, the solvent system for all LC purposes was a mixture of A (0.05% TFA in H2O) and B (CH3CN). The method used was 10% to 100% B over 12.5 min, then 100% B for 2.5 min, unless otherwise stated.
In addition, the rate of CO release was measured in different physiological solutions at pH 7.4, 37° C.: phosphate buffered saline (PBS), Tris-sucrose buffer and UW solution using an amperiometric CO selective electrode (ISO-COP-2, World Precision Instruments (WPI), Inc, Sarasota, USA). The amount of CO released was recorded as the magnitude of electrode current generated on CO diffusion through a selective gas permeable membrane and oxidised to CO2 on the electrode. Current changes were recorded using a WPI TRB4100 4-channel free radical analyser with the poise potential set to 950 mV. […] The effect of pH upon the release of CO was assessed by adjusting the pH of Tris sucrose buffer to pH 6.6 using HCl and to pH 8.5 using NaOH. […]

For data set [6], the system named is MDCK cells. Kind of data set: imaging of intracellular CO in living cells with fluorescent probe COP-1. The data set is classed as cell-based, Canine. To be noted: 10-50 μM, 37° C. and 8° C., bis-trifluoroacetate Salt. The method, then:
A palladium CO-responsive small-molecule fluorescent probe (COP-1) was synthesised and carbonylation of the probe by CO confirmed as previously described.^41 A final concentration of 2 nM of COP-1 was added to each well of a 96-well plate containing 200 μL of Mg^2+ and Ca^2+ free phosphate solution (DPS, 37° C.). CORM-2, oCOm-19 and oCOm-21 (1-100 μM) were added to wells in triplicate, and zeroed against an equivalent volume of vehicle control added to COP-1. Emission spectra (λ 400-600 nm) were recorded at regular time intervals for one hour using a Spectromax Gemini fluorescent plate reader (Molecular Devices, Crawley, UK) at 37° C., (λex 475 nm, and the λem500 nm measured).
The ability of the CO donors to increase intracellular levels of CO was tested in Madin Darby Canine Kidney (MDCK) cells. […] Cells were incubated for 1 hour at either 8 or 37° C. then 1 μM COP-1 in DPS added per well and cells incubated for a further 15 minutes. Cells were imaged on a fluorescent inverted microscope (Nikon Eclipse Ti-E).

In data set [7] the test system is MDCK cells.
Where [8] appears, read: * (MDA-MB-231), inactive CO depleted analogues, 37° C., read-out: EC50 (μM), Inactive Compound.
Setting [9] is: *MDA-MB-231 cells, 1 hr exposure at 37° C., viability after 23 hrs, read-out: EC50 (μM), Active Compound.
[10] abbreviates: read-out: EC50 (μM), Active Compound.

“Also recorded” adds a separate entry of the source. Counter-ions that a name gives are not always drawn. Like-named read-outs stand apart in the source and are kept apart here.

Protocol for MDA-MB-231: The loss of cell adhesion for anchorage-dependent cell lines, such as MDCK, represents a surrogate marker of imminent cellular demise which can be measured by the crystal violet cell adhesion (CVCA) assay.^42 MDCK cells were grown in DMEM supplemented with 4% donor calf serum and 1% antibiotic (Gibco Life Technologies, Auckland NZ) and plated at 1×10^6 cells/mL in 24 well plates. CO donor compounds, CO expired compounds (left in solution for over 48 hours) or non CO releasing, debromo derivatives were dissolved in either ultrapure water or for non-water soluble compounds, in DMSO and diluted to 20-100 μM (to a final concentration of 1% DMSO where appropriate). Cells were exposed to CO donor compounds or the respective vehicle control solution for 1 hour at 37° C. prior to washing and incubating for a further 23 hours in fresh media. Cells were fixed in 96% ethanol and stained in 0.05% crystal violet solution in 20% ethanol, prior to washing and solubilising (24 hours) in 2 mL 0.1% acetic acid in 50% ethanol. Sample solutes (100 μL) from each well were transferred into a 96 well plate and absorbance measured at 585 nm. Cell survival was reported as a percentage of the value obtained for cells exposed to vehicle only and used to plot a concentration-response curve for each compound from which an EC50 value was obtained.
Toxicity was reported as EC50 values calculated from percentage cell survival using Origin Pro8 software (OriginLab, MA, USA).

`Cc1c2c(c(C)c(-c3ccccc3)c1-c1ccccc1)C(=O)N(c1ccccc1)C2=O` [BP-1, 4,7-Dimethyl-2,5,6-triphenyl-1H-isoindole-1,3(2H)-dione] showed a melting point of 260 °C. In addition, the 50% effective concentration (EC50) in the data set with MDA-MB-231 (setting [8]) is over 200 µM.
The matching figures for `COCCOCCOCCOc1ccc(N2C(=O)c3c(C)c(-c4ccccc4)c(-c4ccccc4)c(C)c3C2=O)cc1` [BP-12, 2-(4-(2-(2-(2-Methoxyethoxy)ethoxy)ethoxy)phenyl)-4,7-dimethyl-5,6-diphenyl-1H-isoindole-1,3(2H)-dione]: 127 to 129 °C and 196 µM.
With `Cc1c2c(c(C)c(-c3ccccc3)c1-c1ccccc1)C(=O)N(CCC(=O)NCCN)C2=O.Cl` [BP-19, N-(2-aminoethyl)-3-(4,7-dimethyl-1,3-dioxo-5,6-diphenylisoindolin-2-yl)propanamide Hydrochloride], in the data set with MDCK cells [1] (read-out: EC50 (μM), Inactive Compound), the EC50 is over 100 µM. In addition, the “vasorelaxant response (in words)” value in [2] was “no vasorelaxant effect”.
Turning to `[C-]#[O+]` [CO gas, carbon monoxide], the carboxyhaemoglobin level was determined as 1.1±0.25% in data set [3] (2 day duration) and 2±0.75% in data set [3] (7 day duration).
`[C-]#[O+].[C-]#[O+].[C-]#[O+].[C-]#[O+].[C-]#[O+].[C-]#[O+].[Cl][Ru][Cl].[Cl][Ru][Cl]` [CORM2, Tri-carbonyldichlororuthenium (II) dimer, reference compound]: the “carbonmonoxymyoglobin formation (in words)” value with horse heart myoglobin was “characteristic shift in the absorbance maxima of myoglobin”.
In the case of `CC12C(=O)C(C)(C(c3ccccc3)=C1c1ccccc1)C1(Br)C(=O)N(c3ccc(O)cc3)C(=O)C21` (stereo not drawn) [oCOm-8, 3a-Bromo-3a,4,7,7a-tetrahydro-4,7-dimethyl-2-(4-hydroxyphenyl)-5,6-diphenyl-4,7-methano-1H-isoindole-1,3,8(2H)-trione], the EC50 with MDA-MB-231 (setting [9]) was 23.1 µM.
The same measure, in the same setting: the figure for `COCCOCCOCCOc1ccc(C2=C(c3ccc(OCCOCCOCCOC)cc3)C3(C)C(=O)C2(C)C2C(=O)N(c4ccc(OCCOCCOCCOC)cc4)C(=O)C23Br)cc1` (stereo not drawn) [oCOm-15, 3a-Bromo-3a,4,7,7a-tetrahydro-4,7-dimethyl-2,5,6-tri-(4-(2-(2-(2-methoxyethoxy)ethoxy)ethoxy)phenyl)-4,7-methano-1H-isoindole-1,3,8(2H)-trione] is 183 µM.
As to `CC12C(=O)C(C)(C(c3ccccc3)=C1c1ccccc1)C1(Br)C(=O)N(CCC(=O)ON3C(=O)CCC3=O)C(=O)C21` (stereo not drawn) [oCOm-17, 2,5-Dioxopyrrolidin-1-yl 3-(3a-bromo-4,7-dimethyl-1,3,8-trioxo-5,6-diphenyl-1,3,3a,4,7,7a-hexahydro-2H-4,7-methanoisoindol-2-yl)propanoate], in the data set with MDA-MB-231 (setting [9]), the half-maximal effective concentration (EC50) came out at 216 µM. In addition, in the data set on MDA-MB-231 (MDA-MB-231 cells), the “cellular toxicity (in words)” value is listed as “least toxic”. In the data set “Solubility in water”, the “solubility (in words)” value is recorded as “lack of solubility in water”.
On to `CC12C(=O)C(C)(C(c3ccccc3)=C1c1ccccc1)C1(Br)C(=O)N(CCC(=O)NCCN)C(=O)C21.Cl` (stereo not drawn) [oCOm-19, N-(2-Aminoethyl)-3-(3a-bromo-4,7-dimethyl-1,3,8-trioxo-5,6-diphenyl-3a,4,7,7a-tetrahydro-1H-4,7-methanoisoindol-2(2H)-yl)propanamide hydrochloride], for which the half-maximal effective concentration (EC50) in the data set on MDCK cells [1] (setting [10]) was 86 µM. The “effect on circulating carboxyhaemoglobin (in words)” value in data set [4] (oCOm-19 and DB-13 133.3 μmol/kg, oCOm-21 33.3 μmol/kg, hydrochloride) is “increase in circulating carboxyhaemoglobin”. Besides, the “behaviour / signs of distress after oral dosing” value in [4] (observed every 15 minutes) is “body pressing behaviour indicative of abdominal discomfort”. Moreover, the “solubility (in words)” value in the data set “Solubility in water” is reported as “water soluble”. The “Solubility in water at 21° C.” value in “Solubility in water” (water, 21° C.) turned out to be 3.2 mg/mL. Moreover, the “vasorelaxant response (in words)” value in data set [2] (hydrochloride) is “reversible, concentration-dependent vasorelaxant responses; also recorded: reversible, concentration-dependent vasorelaxation; also recorded: vasorelaxant effects”. For the same molecule, the “carbonmonoxymyoglobin formation (in words)” value in the data set on horse heart myoglobin is “time- and concentration-dependent increase in carbonmonoxymyoglobin formation”. Also, the “time by which 50% of the donor CO maximum release capacity was depleted” value in data set [5] was 40 min.
In the case of `CC12C(=O)C(C)(C(c3ccccc3)=C1c1ccccc1)C1(Br)C(=O)N(CCNCCN)C(=O)C21` (stereo not drawn) [oCOm-23, 2-(2-(2-Aminoethyl)aminoethyl)-3a-bromo-3a,4,7,7a-tetrahydro-4,7-dimethyl-5,6-diphenyl-4,7-methano-1H-isoindole-1,3,8(2H)-trione bis-trifluoroacetate Salt], the “intracellular CO, COP-1 / BODIPY fluorescence (in words)” value in the data set with MDCK cells [6] is “Increased BODIPY fluorescence intensity; also recorded: increased intracellular CO levels”. Further, the EC50 in the data set on MDCK cells [1] (setting [10]) was 10.1 µM; with MDCK cells [1] (read-out: EC50 (μM), Active Compound at 8° C.), over 200 µM. Besides, in the data set on MDCK cells [7], the “cellular toxicity (in words)” value is on record as “increased toxicity”. Further, the “time by which 50% of the donor CO maximum release capacity was depleted” value in data set [5] was determined as 75 min.

Usually EC50 stands for the concentration needed to bring the measured effect to its halfway point. A word on the melting point: it is the temperature, or range, at which the solid turns liquid.
